This is an account of results in patent publication EP2603503B1, “DABIGATRAN ETEXILATE BISMESYLATE SALT, SOLID STATE FORMS AND PROCESS FOR PREPARATION THEREOF” (ratiopharm GmbH, priority 2010, dated 2012).

The nature of data set [1]: storage stability (temperature / relative humidity). Type of data set: physicochemical. The note with it: at least two weeks.
A short description of data set [2]: solubility in water. Type of data set: physicochemical.
The conditions of data set [3]: temperature not stated; cited from earlier work.

≈ marks a conversion by molar mass, not a printed value. Counter-ions that a name gives are not always drawn. Like-named read-outs stand apart in the source and are kept apart here.

Consider `CCCCCCOC(=O)NC(=N)c1ccc(NCc2nc3cc(C(=O)N(CCC(=O)OCC)c4ccccn4)ccc3n2C)cc1` [Dabigatran etexilate bismesylate], for which the stable upon storage entry in data set [1] (about 25°C, relative humidity (RH) about 60%) is listed as “stable”; in data set [1] (about 40°C, RH about 75%) it was “stable”. In data set [2], the “solubility in water at 37 °C” value was found to be 33.9 mg/mL. With `CCCCCCOC(=O)NC(=N)c1ccc(NCc2nc3cc(C(=O)N(CCC(=O)OCC)c4ccccn4)ccc3n2C)cc1` [Dabigatran etexilate monomesylate, ethyl 3-{[(2-{[(4-{N'-[(hexyloxy)carbonyl]carbamimidoyl}phenyl)amino]methyl}-1-methyl-1H-benzimid-azol-5-yl)carbonyl] (2-pyridinyl)amino}propanoate mesylate salt, reference compound], the “solubility in water at 37 °C” value in data set [2] (mesylate salt) turned out to be 14.7 mg/mL. Consider `CCCCCCOC(=O)NC(=N)c1ccc(NCc2nc3cc(C(=O)N(CCC(=O)OCC)c4ccccn4)ccc3n2C)cc1` [Dabigatran etexilate, Ethyl 3-[(2-{[4-(hexyloxycarbonylaminoiminomethyl)phenylamino]methyl}-1-methyl-1H-benzimidazole-5-carbonyl)pyridin-2-ylamino]propionate base], for which the solubility in water in data set [3] is 1.8 mg/mL (≈ 2870 µM).
